Experiment: Residual parent lipid levels in the liver of mice
Assay type: in vivo, CD-1 mice
Conditions: calculation assumes a 25 g mouse with a 1.5 g liver, >95% equals very slow metabolism of the lipid
Description: To assess potency of expression and metabolic stability of lipids of the disclosure, hepatocyte protein expression (hEPO) was measured following administration to mice of a nanoparticle of the disclosure.
Lipid nanoparticles including DSPC as a phospholipid, cholesterol as a structural lipid, Compound I as a PEG lipid, an ionizable amino lipid of Formula (II), and an mRNA encoding hEPO were intravenously administered to CD-1 mice. The concentration of hEPO in serum was tested at 6 hours after injection.

Approx. Percent Total Dose of Parent Lipid Remaining at 24 h | SMILES
<0.1%^ | CCCCCCCCC(CCCCCCCC)OC(=O)CCCCCCCN(CCO)CCCCCCCC(=O)OCCCC(CCCCC)CCCCC [Compound 31]
<0.1%^ | CCCCCC(CCCCC)CCCOC(=O)CCCCCCCN(CCO)CCCCCCCC(=O)OCCCC(CCCCC)CCCCC [Compound 33]
<0.1%^ | CCCCCCCCC(CCCCCCCC)OC(=O)CCCCCCCN(CCO)CCCCCCCC(=O)OCCC1CCC(CC)CC1 (stereo not shown) [Compound 35]
<0.1%^ | CCCCCCCCC(CCCCCCCC)OC(=O)CCCCCCCN(CCO)CCCCCCCC(=O)OCCC1CCC(CC)C1 (stereo not shown) [Compound 37]
9 ± 0.8% ^ | CCCCCCC(CCCCCC)OC(=O)CCCCCCCN(CCCCCCCC(=O)OCCC(CCCC)CCCC)CCCNc1c(NC)c(=O)c1=O [Compound 60]
6 ± 0.3% ^ | CCCCCC(CCCCC)OC(=O)CCCCCCCN(CCCCCCCC(=O)OCCC(CCCC)CCCC)CCCNc1c(NC)c(=O)c1=O [Compound 61]
2 ± 0.9% ^ | CCCCC(CCCC)CCOC(=O)CCCCCCCN(CCCCCCCC(=O)OC(CCCC)CCCC)CCCNc1c(NC)c(=O)c1=O [Compound 62]
9 ± 3% ^ | CCCCCCCC(CCCCCCC)OC(=O)CCCCCCCN(CCCCCCCC(=O)OCCC(CCC)CCC)CCCNc1c(NC)c(=O)c1=O [Compound 63]
6 ± 0.8% ^ | CCCCCCC(CCCCCC)OC(=O)CCCCCCCN(CCCCCCCC(=O)OCCC(CCC)CCC)CCCNc1c(NC)c(=O)c1=O [Compound 64]
0.9 ± 0.06% ^ | CCCCCC(CCCCC)OC(=O)CCCCCCCN(CCCCCCCC(=O)OCCC(CCC)CCC)CCCNc1c(NC)c(=O)c1=O [Compound 65]

— patent US20240207444A1, “LIPID NANOPARTICLES CONTAINING POLYNUCLEOTIDES ENCODING PHENYLALANINE HYDROXYLASE AND USES THEREOF” (ModernaTX, Inc., priority 2021, published 2024)
